Results published in US11596150B2, “Long chain glycolipids useful to avoid perishing or microbial contamination of materials” (IMD NATURAL SOLUTIONS GMBH, priority 2011, dated 2023).
≈ marks a conversion by molar mass, not a printed value. Read-outs that look alike come from different tables or passages of the source.

Experiments:
[1] = tested on: Propionibacterium acnes (ATCC6919); test: MIC after 48 h (Example 9); type: cell-based; conditions: Cutibacterium acnes
[2] = tested on: Saccharomyces cerevisiae (HT10); test: MIC determination in microtiter plates (non-pathogenic microorganisms); type: cell-based; conditions: 48 h, read-out: MIC values after 48 h
[3] = tested on: Aspergillus niger (ATCC 16404); test: as above; type: cell-based; conditions: Aspergillus niger (ATCC16404); 48 h; read-out: MIC values after 48 h
[4] = tested on: Dekkera naardenensis (DSM70743); test: as above; type: cell-based; conditions: Brettanomyces naardenensis, 48 h, read-out: MIC values after 48 h
[5] = tested on: Zygosaccharomyces florentinus (DSM70506); test: as above; type: cell-based; conditions: Zygotorulaspora florentina, 48 h, read-out: MIC values after 48 h
[6] = tested on: Zygosaccharomyces rouxii (NCYC381); test: as above; type: cell-based; conditions: 48 h, read-out: MIC values after 48 h
[7] = tested on: Dekkera bruxellensis (DSM70726); test: as above; type: cell-based; conditions: Brettanomyces bruxellensis, 48 h, read-out: MIC values after 48 h
[8] = tested on: Pyricularia oryzae (DSM62938); test: microbe, parasite or virus in culture; type: cell-based; conditions: DSM62938, 48 h, read-out: MIC values after 48 h
[9] = tested on: Talaromyces luteus (CBS348.51); test: MIC after 48 h (Example 9); type: cell-based; conditions: Ascospirella lutea
[10] = tested on: Byssochlamys fulva (DSM62097); test: MIC determination in microtiter plates (non-pathogenic microorganisms); type: cell-based; conditions: Paecilomyces fulvus, 48 h, read-out: MIC values after 48 h
[11] = tested on: Staphylococcus aureus (ATCC 6538P); test: microbe, parasite or virus in culture; type: cell-based; conditions: ATCC6538P, Mueller-Hinton Broth, 1% DMSO, 20 hours at 36° C., read-out: MIC S. aureus
[12] = tested on: Lactobacillus plantarum (DSM 12028); test: MIC determination in microtiter plates (non-pathogenic microorganisms); type: cell-based; conditions: Lactiplantibacillus plantarum; Lactobacillus plantarum (DSM12028); 48 h; read-out: MIC values after 48 h
[13] = tested on: Aspergillus fumigatus (ATCC 1028); test: microbe, parasite or virus in culture; type: cell-based
[14] = tested on: Candida albicans; test: MIC / growth inhibition after 48 h (Example 9); conditions: ATCC10231, 48 h, read-out: MIC values after 48 h
[15] = tested on: Corynebacterium variabile (DSM20132); test: MIC determination in microtiter plates (non-pathogenic microorganisms); type: cell-based; conditions: 48 h, read-out: MIC values after 48 h
[16] = tested on: Zygosaccharomyces bailii (DSM70492); test: as above; type: cell-based; conditions: 48 h, read-out: MIC values after 48 h
[17] = tested on: Bacillus subtilis (ATCC6633); test: as above; type: cell-based; conditions: 48 h, read-out: MIC values after 48 h
[18] = tested on: Clostridium perfringens (ATCC 13124); test: microbe, parasite or virus in culture; type: cell-based; conditions: ATCC13124, 48 h
[19] = tested on: Zygosaccharomyces bisporus (DSM70415); test: MIC determination in microtiter plates (non-pathogenic microorganisms); type: cell-based; conditions: 48 h, read-out: MIC values after 48 h
[20] = tested on: Mucor plumbeus (MUCL49355); test: as above; type: cell-based
[21] = tested on: Listeria monocytogenes (ATCC19111); test: MIC after 48 h (Example 9); conditions: ATCC19111, 48 h, read-out: MIC values after 48 h
[22] = tested on: Bacillus cereus; test: MIC / growth inhibition after 48 h (Example 9); conditions: ATCC11778, 48 h, read-out: MIC values after 48 h
[23] = tested on: Enterococcus faecalis (ATCC19433); test: MIC after 48 h (Example 9); conditions: ATCC19433, 48 h, read-out: MIC values after 48 h
[24] = tested on: Listeria welshimeri (DSM15452); test: MIC determination in microtiter plates (non-pathogenic microorganisms); type: cell-based; conditions: 48 h, read-out: MIC values after 48 h
Text: Various nonpathogenic bacteria, yeasts, and filamentous fungi were obtained from public culture collections and maintained as recommended in the catalogues and protocols of the respective institutions. Saccharomyces cerevisiae strain HT10 and Mucor plumbeus were originally taken from the culture collection of InterMed Discovery GmbH but deposited with MUCL as reference strains for antimicrobial susceptibility testing. These strains were maintained under liquid nitrogen and, prior to the screening, on YMG agar. Prior to the screening the yeast and bacterial strains were grown over night on SDB (medium 1), except for Bacillus subtilis, which was grown on YMG agar (medium 2) for 1 week to prepare spore suspensions. Likewise, the filamentous fungi were pre-incubated on YMG agar for 2-3 weeks to create inoculum for spore suspensions. […] For all experiments, freshly prepared spore suspensions were used. The initial concentrations for the bioassays were adjusted to 1×10^5 CFU (i.e. cells or spores, respectively) per ml. […] To adjust the initial titer prior to the bioassays, the CFU per ml was determined under the microscope using a counting chamber type “Brand Neubauer improved”; BRAND GmbH & Co KG, Wertheim, Germany). This microscopic control also served as means for assessment of the viability of the cells. […]

[25] = tested on: Clostridium sporogenes; test: MIC / growth inhibition after 48 h (Example 9); conditions: ATCC3584, 48 h, read-out: MIC values after 48 h
[26] = Aspergillus fumigatus (ATCC1028), 48 h, read-out: MIC values after 48 h
[27] = Aspergillus fumigatus, ATCC1028, 72 h, Potato Dextrose Broth, 1% DMSO, 3 days at 28° C., read-out: MIC A. fumigatus
[28] = read-out: MIC values after 48 h
[29] = M. plumbeus (MUCL49355), SDB medium, day not given (Table 19)
[30] = M. plumbeus (MUCL49355), SDB medium, day not printed (first line of Table 19)
[31] = Mucor plumbeus (MUCL49355), 48 h, read-out: MIC values after 48 h
[32] = M. plumbeus (MUCL49355), SDB medium, day 2
[33] = M. plumbeus (MUCL49355), SDB medium, day 7
[34] = M. plumbeus (MUCL49355), SDB medium, day 16
[35] = M. plumbeus (MUCL49355), SDB medium, day 28

| SMILES | MIC [2] [µg/mL] | MIC [3] [µg/mL] | MIC [4] [µg/mL] | MIC [5] [µg/mL] | MIC [6] [µg/mL] | MIC [7] [µg/mL] | MIC [8] [µg/mL] | MIC [9] [µg/mL] | MIC [10] [µg/mL] | MIC [12] [µg/mL] | MIC [15] [µg/mL] | MIC [16] [µg/mL] | MIC [17] [µg/mL] | MIC [19] [µg/mL] | MIC [20, 29] | MIC [20, 30] | MIC [20, 31] [µg/mL] | also measured |
| --- | --- | --- | --- | --- | --- | --- | --- | --- | --- | --- | --- | --- | --- | --- | --- | --- | --- | --- |
| CCCCC(CCCC(O)C(O)CCCCCCCCCCCCCCC(O)C(=O)O)OC1OCC(O)C(O)C1OC1OCC(OC(C)=O)C(O)C1OC1OC(COC(=O)CC(C)C)C(O)C(O)C1O (centres unmarked) [[1], 2,17,18-trihydroxy-hexacosanoic acid 22-O-[6-isovaleroyl-hexapyranosyl-(1→2)-5-acetyl-pentapyranosyl-(1→2)-penta-pyranosid]-] | 6.3 (≈ 6.22 µM) | 3.1 (≈ 3.06 µM) | 6.3 (≈ 6.22 µM) | 6.3 (≈ 6.22 µM) | 6.3 (≈ 6.22 µM) | 6.3 (≈ 6.22 µM) | 6 (≈ 5.92 µM) | 12.5 (≈ 12.3 µM) | 3.1 (≈ 3.06 µM) | 25 (≈ 24.7 µM) | 1.6 (≈ 1.58 µM) | 6.3 (≈ 6.22 µM) | 3.1 (≈ 3.06 µM) | 12.5 (≈ 12.3 µM) | 50 | 25 | 6.3 (≈ 6.22 µM) | MIC [1]: 100 µg/mL (≈ 98.7 µM); MIC [11]: 200 µg/mL (≈ 197 µM); MIC [13, 26]: 20 µg/mL (≈ 19.7 µM); MIC [13, 27]: 20 µg/mL (≈ 19.7 µM); MIC [14]: 30 µg/mL (≈ 29.6 µM); MIC ([18]; read-out: MIC C. perfringens): 60 µg/mL (≈ 59.2 µM); MIC [18, 28]: 60 µg/mL (≈ 59.2 µM) |
| CCCCC(CCCC(O)C(O)CCCCCCCCCCCCCCC(O)C(=O)O)OC1OCC(O)C(O)C1OC1OCC(O)C(O)C1OC1OC(COC(C)=O)C(OC(C)=O)C(O)C1O (centres unmarked) [[6], Glykenin IIIB or Glykenin IIIC] | – | – | – | – | – | – | – | – | – | – | – | – | – | – | 25 | 25 | – | – |
| CCCCCCC(CCCC(O)CCCCCCCCCCCCCC(O)C(=O)O)OC1OCC(O)C(O)C1OC1OCC(OC(C)=O)C(O)C1OC1OC(COC(C)=O)C(O)C(O)C1O (centres unmarked) [[10], Antibiotic F 19848A] | – | – | – | – | – | – | – | – | – | – | – | – | – | – | 50 | 12.5 | – | – |
| CCCCC(CCCC(O)C(O)CCCCCCCCCCCCCCC(O)C(=O)O)OC1OCC(O)C(O)C1OC1OCC(O)C(O)C1OC1OC(COC(=O)CC(C)C)C(O)C(O)C1O (centres unmarked) [[12]] | 6.3 (≈ 6.49 µM) | 6.3 (≈ 6.49 µM) | 6.3 (≈ 6.49 µM) | 6.3 (≈ 6.49 µM) | 6.3 (≈ 6.49 µM) | 6.3 (≈ 6.49 µM) | 25 (≈ 25.7 µM) | 25 (≈ 25.7 µM) | 6.3 (≈ 6.49 µM) | 25 (≈ 25.7 µM) | < 0.8 | 6.3 (≈ 6.49 µM) | 1.6 (≈ 1.65 µM) | 12.5 (≈ 12.9 µM) | 100 | 50 | 6.3 (≈ 6.49 µM) | MIC [21]: 50 µg/mL (≈ 51.5 µM); MIC [22]: 12.5 µg/mL (≈ 12.9 µM); MIC [11]: 200 µg/mL (≈ 206 µM); MIC [23]: 50 µg/mL (≈ 51.5 µM); MIC [13, 26]: 20 µg/mL (≈ 20.6 µM); MIC [13, 27]: 20 µg/mL (≈ 20.6 µM); MIC [14]: 25 µg/mL (≈ 25.7 µM); MIC [24]: 25 µg/mL (≈ 25.7 µM); MIC ([18]; read-out: MIC C. perfringens): 60 µg/mL (≈ 61.8 µM); MIC [18, 28]: 60 µg/mL (≈ 61.8 µM); MIC [25]: 50 µg/mL (≈ 51.5 µM) |
| CCCCC(CCCC(O)C(O)CCCCCCCCCCCCCCC(O)C(=O)O)OC1OCC(O)C(O)C1OC1OCC(O)C(O)C1OC1OC(COC(=O)CC(C)C)C(OC(C)=O)C(O)C1O (centres unmarked) [[13]] | 12.5 (≈ 12.3 µM) | 12.5 (≈ 12.3 µM) | 12.5 (≈ 12.3 µM) | 12.5 (≈ 12.3 µM) | 12.5 (≈ 12.3 µM) | 6.3 (≈ 6.22 µM) | 6 (≈ 5.92 µM) | 25 (≈ 24.7 µM) | 3.1 (≈ 3.06 µM) | 25 (≈ 24.7 µM) | 1.6 (≈ 1.58 µM) | 6.3 (≈ 6.22 µM) | 3.1 (≈ 3.06 µM) | 25 (≈ 24.7 µM) | 25 | 12.5 | 12.5 (≈ 12.3 µM) | – |
| CCCCC(CCCC(O)C(O)CCCCCCCCCCCCCCC(O)C(=O)O)OC1OCC(O)C(O)C1OC1OCC(OC(C)=O)C(O)C1OC1OC(CO)C(O)C(O)C1O (centres unmarked) [[14]] | 50 (≈ 53.8 µM) | 50 (≈ 53.8 µM) | 25 (≈ 26.9 µM) | 50 (≈ 53.8 µM) | 25 (≈ 26.9 µM) | 50 (≈ 53.8 µM) | 25 (≈ 26.9 µM) | 50 (≈ 53.8 µM) | – | 25 (≈ 26.9 µM) | 1.6 (≈ 1.72 µM) | 25 (≈ 26.9 µM) | 1.6 (≈ 1.72 µM) | 50 (≈ 53.8 µM) | >100 | 50 | 50 (≈ 53.8 µM) | – |
| CCCCC(CCCC(O)C(O)CCCCCCCCCCCCCCC(O)C(=O)O)OC1OCC(O)C(O)C1OC1OCC(O)C(O)C1OC1OC(CO)C(O)C(O)C1O (centres unmarked) [[16], Glykenin DGC or Glykenin DGB] | > 100 | 25 (≈ 28.2 µM) | 50 (≈ 56.4 µM) | > 100 | 100 (≈ 113 µM) | > 100 | 25 (≈ 28.2 µM) | 50 (≈ 56.4 µM) | 6.3 (≈ 7.1 µM) | 50 (≈ 56.4 µM) | 1.6 (≈ 1.8 µM) | 25 (≈ 28.2 µM) | 3.1 (≈ 3.49 µM) | > 100 | >100 | >100 | > 100 | – |
| CCCCCCC(CCCC(O)CCCCCCCCCCCCCC(O)C(=O)O)OC1OCC(O)C(O)C1OC1OCC(OC(C)=O)C(O)C1OC1OC(COC(=O)CC(C)C)C(O)C(O)C1O (centres unmarked) [[18]] | – | – | – | – | – | – | – | – | – | – | – | – | – | – | >100 | 25 | – | – |
| O=C(O)c1ccccc1 [benzoic acid, reference compound] | – | – | – | – | – | – | – | – | – | – | – | – | – | – | – | – | – | MIC [20, 32]: 1000; MIC [20, 33]: 1000; MIC [20, 34]: >1000; MIC [20, 35]: >1000 |
| C/C=C/C=C/C(=O)O [sorbic acid, reference compound] | – | – | – | – | – | – | – | – | – | – | – | – | – | – | – | – | – | MIC [20, 32]: 250; MIC [20, 33]: 500; MIC [20, 34]: 1000; MIC [20, 35]: 1000 |
